One block for each molecule: values may come before it.
Columns and labels:
[1] = target: T1, protein phosphatase-2A1 (Homo sapiens, UniProt P67775); test: Assay of purified protein phosphatase-2A1 in vitro with 32P-labeled phosphorylase a as substrate; assay type: biochemical; parameters: Protein phosphatase-2A1 purified from CD^4+ T cells as described in materials and method; endogenous in cells; host or cells: Jurkat cells; enzyme purified by DEAE Sepharose, Sephacryl S-300 HR and poly-L-lysine Agarose; details: highly purified enzyme from Jurkat cells
Protocol: Protein phosphatase-2A1 purified from CD^4+ T cells as described in materials and method was assayed in the presence of various concentrations of SYRAPRO-2000. 100 percent protein phosphatase-2A1 activity is equivalent to 0.005 unit. Similar result were obtained in 3 independent experiments.
The effect of synthesized SYRAPRO-2000 on purified protein phosphatase-2A1 can be determined in vitro. Protein phosphatase-2A1 can be assayed using ^32P-labeled phosphorylase a as substrate in the presence of various concentrations of SYRAPRO-2000. Protein phosphatase-2A1 is activated in the presence of SYRAPRO-2000.
Protein phosphatase-1 was assayed as described in (Cohen 1988). Protein phosphatase-2B was assayed as described in (Tung 1986). Protein phosphatase-2C was assayed as described in (Tung 1986) except Ca^2+ and calmodulin were omitted. The assay of protein phosphatases-2A1 consisted of 0.02 ml of enzyme solution in 50 mM Imidazole-Cl pH 7.2, 0.2 mM EGTA, 0.1% (v/v) 2-mercaptoethanol and 1 mg/ml bovine serum albumin (Assay Buffer), 0.01 ml of inhibitor-2 at 600 nM in Assay Buffer, 0.01 ml of protamine at 60 μg/ml in Assay Buffer or 0.01 ml of SYRAPRO-2000 at different concentrations in Assay Buffer or 0.01 ml of Assay Buffer alone, 0.02 ml of ^32P-labeled phosphorylase a at 3 mg/ml in Assay Buffer containing 15 mM caffeine. The assay components were preincubated for 10 minutes prior to initiating the reaction with ^32P-labeled phosphorylase a. One unit of protein phosphatase activity is that amount of enzyme which catalyzes the release of 1 nmol of phosphate from ^32P-labeled substrate per min at 30° C.
Jurkat cells, a human transformed CD^4+ T cell line, were grown in grown in RPMI 1680 supplemented with 5% (v/v) fetal bovine serum at 37° C. in 95% air/5% CO2 in a humidified incubator. 2.4 liters of cells were collected by centrifugation at 4200 rpm in a low speed centrifuge for 10 minutes. The cells were homogenized in 80 ml of 50 mM Imidazole-Cl pH 7.2, 2 mM EGTA, 2 mM EDTA, 0.1% (v/v) 2-mercaptoethanol, 0.2 mM PMSF, 1 mM benzamidine, 4 μg/ml aprotinin, 4 μg/ml leupeptin, 4 μg/ml pepstatin, 0.1 mM TLCK, 0.1 mM TPCK, 1 mM sodium orthovanadate and 10% (v/v) glycerol by 40 strokes in a glass hand held homogenizer. The homogenate was centrifuged at 29000 rpm in a high speed centrifuge for 30 minutes. The supernatant (i.e the extract) was collected and loaded onto a DEAE Sepharose column (1.5×6 cm) equilibrated in 25 mM Imidazole-Cl pH 7.2, 0.2 mM EGTA, 0.1% (v/v) 2-mercaptoethanol, 0.1 mM PMSF, 1 mM benzamidine and 10% (v/v) glycerol (Buffer A). The column was washed with 50 ml of Buffer and then eluted with a 200 ml linear gradient of Buffer A to Buffer A plus 0.4 M NaCl. The eluted fractions were then assayed for phosphorylase phosphatase activity in the presence of 100 nM inhibitor-2 and 10 μg/ml of protamine. Two major peaks of phosphorylase phosphatase were observed. The first and second peak represent protein phosphatase-2A0 and protein phosphatase-2A1 respectively. […] The major activity eluting as a species of apparent molecular mass 300 kDa was collected, diluted four fold in Buffer A and loaded onto a poly-L-lysine Agarose Column (1.5×4 cm) equilibrated in Buffer A. The column was washed with 50 ml of Buffer A and then eluted with a 200 ml linear gradient of Buffer A to Buffer A plus 0.5 M NaCl. The active fractions eluting at ˜0.30 M NaCl salt concentration was pooled, concentrated by vacuum dialysis and stored at ^−20° C. in 50 mM Imidazole-Cl pH 7.2, 0.2 mM EGTA in the presence of 50% (v/v) glycerol. The highly purified enzyme consisted of the characteristic subunits of protein phosphatase-2A1, namely the A, B and C subunits. […] It is difficult to determine the activity of protein phosphatase-2A1 in CD^4+ T cell extract. However, assuming that it represented about 66 percent of total type 2A protein phosphatase activity in CD^4+ T cell extract, the specific activity of the enzyme in extract was estimated to be 0.3 unit/mg. […]
Target sequence in this assay (P67775 whole entry): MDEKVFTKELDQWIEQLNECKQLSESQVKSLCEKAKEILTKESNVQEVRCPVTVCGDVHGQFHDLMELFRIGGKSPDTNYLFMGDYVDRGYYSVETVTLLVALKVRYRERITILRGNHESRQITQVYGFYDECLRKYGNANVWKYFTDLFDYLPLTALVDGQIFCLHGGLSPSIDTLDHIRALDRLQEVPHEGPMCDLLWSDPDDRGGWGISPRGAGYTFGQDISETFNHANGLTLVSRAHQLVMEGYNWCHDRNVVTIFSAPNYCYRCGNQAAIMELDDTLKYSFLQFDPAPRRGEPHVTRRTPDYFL
Target sequence in this assay (P30153 whole entry partner): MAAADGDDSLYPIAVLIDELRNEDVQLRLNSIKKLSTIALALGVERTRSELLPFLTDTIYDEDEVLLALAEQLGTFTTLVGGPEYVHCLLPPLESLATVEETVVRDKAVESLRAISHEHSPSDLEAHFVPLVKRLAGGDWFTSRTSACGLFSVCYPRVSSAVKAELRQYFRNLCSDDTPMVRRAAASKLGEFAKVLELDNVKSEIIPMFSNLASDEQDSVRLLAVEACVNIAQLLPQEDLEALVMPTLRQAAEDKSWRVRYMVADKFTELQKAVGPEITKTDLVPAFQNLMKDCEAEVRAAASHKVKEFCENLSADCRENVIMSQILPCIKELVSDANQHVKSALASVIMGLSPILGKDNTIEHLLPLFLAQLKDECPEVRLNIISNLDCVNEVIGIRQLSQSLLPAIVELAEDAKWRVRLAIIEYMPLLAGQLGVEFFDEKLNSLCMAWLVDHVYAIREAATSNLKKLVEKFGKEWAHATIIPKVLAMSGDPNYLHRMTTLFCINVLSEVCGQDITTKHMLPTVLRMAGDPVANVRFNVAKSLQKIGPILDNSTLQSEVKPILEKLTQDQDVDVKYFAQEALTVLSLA
Target sequence in this assay (P63151 whole entry partner): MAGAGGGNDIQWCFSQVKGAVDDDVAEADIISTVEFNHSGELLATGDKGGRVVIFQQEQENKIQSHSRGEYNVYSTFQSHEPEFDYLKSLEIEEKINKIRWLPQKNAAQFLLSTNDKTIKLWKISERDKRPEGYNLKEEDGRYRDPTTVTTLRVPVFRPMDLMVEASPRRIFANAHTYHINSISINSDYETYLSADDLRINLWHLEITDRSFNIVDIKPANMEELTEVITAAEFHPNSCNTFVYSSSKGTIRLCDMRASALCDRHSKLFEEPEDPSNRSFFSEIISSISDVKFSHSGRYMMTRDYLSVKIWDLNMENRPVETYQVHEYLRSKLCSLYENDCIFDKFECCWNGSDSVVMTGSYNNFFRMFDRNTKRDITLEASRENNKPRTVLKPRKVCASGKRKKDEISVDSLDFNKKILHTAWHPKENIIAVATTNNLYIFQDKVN

[2] = target: T1, protein phosphatase-2A1; details: Tung 1997; Janoo 2005; cited from earlier work
Target sequence in this assay (P67775 whole entry): as the sequence (P67775 whole entry) above

Molecule: C=C1[C@@H](O)[C@@H]2O[C@]3(CC[C@H](/C=C/[C@@H](C)[C@@H]4CC(C)=C[C@@]5(O[C@H](C[C@@](C)(O)C(=O)O)CC[C@H]5O)O4)O3)CC[C@H]2O[C@@H]1[C@@H](O)C[C@H](C)[C@H]1O[C@@]2(CCCCO2)CC[C@H]1C [okadaic acid, reference compound]
effect on protein phosphatase-2A1 from CD4+ T cells [1]: inhibited

Molecule: full length HIV-1 Vpr: full length HIV-1 Vpr protein, tested in the literature
activation of protein phosphatase-2A1 [2]: not to activate

Now from value to molecule:

effect on protein phosphatase-2A1 from CD4+ T cells [1]: activated
Molecule: protamine [reference compound]

effect on protein phosphatase-2A1 from CD4+ T cells [1]: not inhibited
B1: inhibitor-2: Protein phosphatase-1 inhibitor-2 purified from rabbit skeletal muscle (protein, UniProt P11845 2-205, looked up)
Protein phosphatase inhibitor …: AASTASHRPIKGILKNKTSSTSSRVASAEQPRGSVDEELSKKSQKWDEMNILATYHPADKDYGLMKIDEPSTPYHSMIGDDDDAYSDTETTEAMTPDTLAKKLAAAEGSEPKYRIREQESSGEEDSDLSPEEREKKRQFEMKRKLHYNEGLNIKLARQLISKDLHDDEEDEEMSETADGESMNTEESNQGSTPSDQRQNKSQSS
